Results as given in US20090068059A1, “METHOD OF PREVENTING HYDROGEN SULFIDE ODOR GENERATION IN AN AQUEOUS MEDIUM” (priority 2007, published 2009).
Several values for one entry are separate records, joined by “and”; a condition that tells them apart may be missing. Identical values can stand only once. Counter-ions that a name gives are not always drawn.

Test system: sulfate reducing bacteria (SRB)
Experiment: Serum bottle test: control of H2S generation and sulfate reducing bacteria in synthetic nutrient medium
Assay type: cell-based
Description: The test protocol was as follows: 100 mL serum bottles were filled with synthetic nutrient medium, then stoppered, capped, and autoclaved, and allowed to cool to at least 35 ° C. Using a 1 mL syringe with needle, the treatment was added at desired dosages to prepared serum bottles (triplicates of each dosage). No treatment was added for baseline controls. At least 6 baseline serum bottles were used. Using a 1 mL syringe with needle, 0.1 mL of prepared culture was added to each serum bottle. Next, a 10^10 cells/ml concentration of the sulfate reducers was prepared (using autoclaved synthetic nutrient medium) inside an anaerobic chamber. Using a 1 ml syringe with needle, 0.1 ml of the prepared sulfate reducers culture was added to each serum bottle. The bottles were then incubated at the desired temperature. The baseline dissolved sulfide levels were then measured to determine if the samples were ready for efficacy analysis. Using a 30 mL syringe with needle, 30 mL of sample was removed from each serum bottle. About 25 mL of the sample was added to a 30 mL bottle containing 0.125 mL zinc acetate solution, followed by adding 1 mL of 1N NaOH. The sulfide in the fixed sample was then measured. The remaining 5 mL of sample in the syringe was used for pH determination.

[1] = H2S generation, inhibitor concentration 1 ppm
[2] = H2S generation, inhibitor concentration 2.5 ppm
[3] = H2S generation, inhibitor concentration 5 ppm
[4] = inhibitor concentration 2.5 ppm
[5] = inhibitor concentration 100 ppm

Row | Structure (SMILES) | inhibition at 1 ppm [1] [%] | % Inhibition (H2S generation, inhibitor concentration 1 ppm, dihydrochloride) | inhibition at 2.5 ppm [2] [%] | inhibition at 5 ppm [3] [%] | H2S concentration (ppm) [4] [ppm] | H2S concentration (ppm) (inhibitor concentration 5 ppm) | inhibition at 25 ppm (inhibitor concentration 25 ppm) [%] | inhibition at 50 ppm (inhibitor concentration 50 ppm) [%] | inhibition at 100 ppm [5] [%] | % Inhibition [1] [%] | % Inhibition [2] [%] | % Inhibition [3] [%] | H2S concentration (ppm) (inhibitor concentration 1 ppm) | % H2S Inhibition (inhibitor concentration 25 ppm) [%] | % H2S Inhibition (inhibitor concentration 50 ppm) [%] | % H2S Inhibition [5]
1 | [H]/N=C(\N/C(=N/[H])NCCCCCCNC(=N)NC(=N)Nc1ccc(Cl)cc1)Nc1ccc(Cl)cc1 [Chlorhexidine dihydrochloride] | 96 | 98% and 95% | 100 | 100 | 0 | 0 | 99 | 99 | 100 |  |  |  |  |  |  | 
2 | N=C(NCCCCCCNC(=N)NC(=N)Nc1ccc(Cl)cc1)NC(=N)Nc1ccc(Cl)cc1.O=C(O)[C@H](O)[C@@H](O)[C@H](O)[C@H](O)CO.O=C(O)[C@H](O)[C@@H](O)[C@H](O)[C@H](O)CO [Chlorhexidine digluconate] |  |  |  |  | 0 | 0 |  |  |  | 100 | 100 | 100 | 0 | 99 | 99 | 99% and 100%
